What was measured:
Test in all cases: KinaseProfiler off-target kinase profiling
Format in all cases: biochemical
Conditions in all cases: 10 μM, ATP near Km
MELK = biological target: T1, MELK (Homo sapiens, UniProt Q14680)
T1 construct: purchased Millipore, Inc. (KinaseProfiler service)
Outline: (§1)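 Each kinase in the full panel was exposed to the compound at 10 μM under ATP conditions approximating that enzyme's Km. Two replicates were run, and their mean activity versus control is what is reported.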

MST1 = biological target: T2, MST1 (Homo sapiens, UniProt Q13043)
T2 construct: purchased Millipore, Inc. (KinaseProfiler service)
Outline: as §1

NEK2 = biological target: T3, NEK2 (Homo sapiens, UniProt P51955)
T3 construct: purchased Millipore, Inc. (KinaseProfiler service)
T3 sequence (P51955 whole entry): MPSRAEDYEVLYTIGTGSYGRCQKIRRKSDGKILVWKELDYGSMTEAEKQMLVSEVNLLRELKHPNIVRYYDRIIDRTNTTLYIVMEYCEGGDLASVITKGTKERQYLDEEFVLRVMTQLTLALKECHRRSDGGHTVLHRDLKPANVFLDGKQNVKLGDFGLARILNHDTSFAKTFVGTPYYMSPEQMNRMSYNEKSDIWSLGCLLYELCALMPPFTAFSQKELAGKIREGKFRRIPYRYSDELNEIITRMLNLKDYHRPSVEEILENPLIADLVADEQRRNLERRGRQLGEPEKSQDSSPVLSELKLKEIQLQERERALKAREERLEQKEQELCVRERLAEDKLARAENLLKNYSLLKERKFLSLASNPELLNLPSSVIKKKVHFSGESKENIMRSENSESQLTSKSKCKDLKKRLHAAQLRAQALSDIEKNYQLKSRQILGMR
Outline: as §1

IGF-1R = biological target: T4, IGF-1R (Homo sapiens, UniProt P08069)
T4 construct: purchased Millipore, Inc. (KinaseProfiler service)
Outline: as §1

CAMK2b = biological target: T5, CAMK2b (Homo sapiens, UniProt Q13554)
T5 construct: purchased Millipore, Inc. (KinaseProfiler service)
Outline: as §1

ERK2 = biological target: T6, ERK2 (Homo sapiens, UniProt P28482)
T6 construct: purchased Millipore, Inc. (KinaseProfiler service)
Outline: as §1

ARK5 = biological target: T7, ARK5 (Homo sapiens, UniProt O60285)
T7 construct: purchased Millipore, Inc. (KinaseProfiler service)
Outline: as §1

MSK2 = biological target: T8, MSK2 (Homo sapiens, UniProt O75676)
T8 construct: purchased Millipore, Inc. (KinaseProfiler service)
T8 sequence (O75676 whole entry): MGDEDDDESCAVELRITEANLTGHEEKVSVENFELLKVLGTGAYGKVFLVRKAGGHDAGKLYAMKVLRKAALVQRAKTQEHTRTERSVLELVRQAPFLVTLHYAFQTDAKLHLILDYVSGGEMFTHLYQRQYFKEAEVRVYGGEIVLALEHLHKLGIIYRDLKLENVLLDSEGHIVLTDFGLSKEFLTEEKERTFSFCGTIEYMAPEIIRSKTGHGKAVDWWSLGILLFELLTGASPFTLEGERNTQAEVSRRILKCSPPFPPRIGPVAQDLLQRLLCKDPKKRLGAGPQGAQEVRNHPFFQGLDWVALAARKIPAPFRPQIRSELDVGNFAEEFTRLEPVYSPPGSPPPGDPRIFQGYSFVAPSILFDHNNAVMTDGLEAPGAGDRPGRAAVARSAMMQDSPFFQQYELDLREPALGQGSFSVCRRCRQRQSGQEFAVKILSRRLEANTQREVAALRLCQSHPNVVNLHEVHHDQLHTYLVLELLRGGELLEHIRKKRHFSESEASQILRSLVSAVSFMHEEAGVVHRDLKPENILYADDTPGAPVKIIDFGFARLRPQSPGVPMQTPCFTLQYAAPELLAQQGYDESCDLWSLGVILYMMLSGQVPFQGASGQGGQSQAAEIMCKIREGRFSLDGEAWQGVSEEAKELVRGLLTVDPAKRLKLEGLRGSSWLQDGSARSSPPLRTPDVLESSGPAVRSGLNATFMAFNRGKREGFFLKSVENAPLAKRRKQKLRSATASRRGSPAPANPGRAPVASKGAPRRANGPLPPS
Outline: as §1

MEK1 = biological target: T9, MEK1 (Homo sapiens, UniProt Q02750)
T9 construct: purchased Millipore, Inc. (KinaseProfiler service)
Outline: as §1

TrkA = biological target: T10, TrkA (Homo sapiens, UniProt P04629)
T10 construct: purchased Millipore, Inc. (KinaseProfiler service)
Outline: as §1

Flt1 = biological target: T11, Flt1 (Homo sapiens, UniProt P17948)
T11 construct: purchased Millipore, Inc. (KinaseProfiler service)
T11 sequence (P17948 27-1338): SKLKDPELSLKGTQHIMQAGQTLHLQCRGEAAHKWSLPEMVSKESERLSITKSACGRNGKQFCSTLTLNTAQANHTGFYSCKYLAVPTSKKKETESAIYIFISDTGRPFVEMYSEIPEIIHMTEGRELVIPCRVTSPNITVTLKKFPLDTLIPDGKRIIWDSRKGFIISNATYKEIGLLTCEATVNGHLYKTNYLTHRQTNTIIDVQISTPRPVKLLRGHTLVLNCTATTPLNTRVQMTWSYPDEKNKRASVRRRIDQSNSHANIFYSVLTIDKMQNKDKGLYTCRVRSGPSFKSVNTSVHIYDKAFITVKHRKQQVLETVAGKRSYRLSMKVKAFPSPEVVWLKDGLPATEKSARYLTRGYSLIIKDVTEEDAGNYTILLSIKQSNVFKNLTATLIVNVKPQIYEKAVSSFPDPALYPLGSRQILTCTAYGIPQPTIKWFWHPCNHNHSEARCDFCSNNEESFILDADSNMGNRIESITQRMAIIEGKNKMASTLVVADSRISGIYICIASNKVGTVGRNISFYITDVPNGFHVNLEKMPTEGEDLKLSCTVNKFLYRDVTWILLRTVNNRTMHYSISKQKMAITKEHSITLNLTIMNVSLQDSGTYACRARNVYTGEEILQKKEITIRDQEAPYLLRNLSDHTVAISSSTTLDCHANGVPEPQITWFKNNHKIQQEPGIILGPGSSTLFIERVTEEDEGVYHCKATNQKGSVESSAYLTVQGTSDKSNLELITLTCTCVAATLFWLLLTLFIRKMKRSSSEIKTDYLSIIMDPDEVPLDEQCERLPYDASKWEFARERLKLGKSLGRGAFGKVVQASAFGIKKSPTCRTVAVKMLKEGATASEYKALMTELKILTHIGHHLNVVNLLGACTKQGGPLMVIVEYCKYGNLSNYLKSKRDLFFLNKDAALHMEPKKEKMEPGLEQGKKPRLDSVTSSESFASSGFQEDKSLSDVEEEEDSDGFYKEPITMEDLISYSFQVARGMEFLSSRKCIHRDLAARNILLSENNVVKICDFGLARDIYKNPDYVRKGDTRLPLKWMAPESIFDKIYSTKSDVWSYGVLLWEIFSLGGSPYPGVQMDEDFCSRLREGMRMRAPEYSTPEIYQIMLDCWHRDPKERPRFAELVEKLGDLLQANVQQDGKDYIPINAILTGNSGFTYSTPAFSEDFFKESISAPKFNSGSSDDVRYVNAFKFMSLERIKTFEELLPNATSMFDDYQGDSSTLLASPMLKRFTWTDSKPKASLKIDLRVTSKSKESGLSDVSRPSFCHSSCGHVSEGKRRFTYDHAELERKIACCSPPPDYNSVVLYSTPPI
Outline: as §1

Fgr = biological target: T12, Fgr (Homo sapiens, UniProt P09769)
T12 construct: purchased Millipore, Inc. (KinaseProfiler service)
Outline: as §1

TAK1 = biological target: T13, TAK1 (Homo sapiens, UniProt O43318)
T13 construct: purchased Millipore, Inc. (KinaseProfiler service)
Outline: as §1

AURKA = biological target: T14, AURKA (Homo sapiens, UniProt O14965)
T14 construct: purchased Millipore, Inc. (KinaseProfiler service)
T14 sequence (O14965 whole entry): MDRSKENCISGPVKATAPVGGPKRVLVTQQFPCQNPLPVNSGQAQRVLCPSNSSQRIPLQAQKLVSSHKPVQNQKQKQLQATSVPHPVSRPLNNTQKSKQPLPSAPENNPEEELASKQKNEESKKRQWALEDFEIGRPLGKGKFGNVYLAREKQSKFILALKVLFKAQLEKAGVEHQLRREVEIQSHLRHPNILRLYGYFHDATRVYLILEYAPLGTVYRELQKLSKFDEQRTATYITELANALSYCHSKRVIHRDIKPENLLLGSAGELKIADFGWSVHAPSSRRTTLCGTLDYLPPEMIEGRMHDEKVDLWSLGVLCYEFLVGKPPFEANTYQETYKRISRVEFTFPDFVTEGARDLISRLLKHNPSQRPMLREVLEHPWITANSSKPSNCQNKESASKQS
Outline: as §1

TBK1 = biological target: T15, TBK1 (Homo sapiens, UniProt Q9UHD2)
T15 construct: purchased Millipore, Inc. (KinaseProfiler service)
T15 sequence (Q9UHD2 whole entry): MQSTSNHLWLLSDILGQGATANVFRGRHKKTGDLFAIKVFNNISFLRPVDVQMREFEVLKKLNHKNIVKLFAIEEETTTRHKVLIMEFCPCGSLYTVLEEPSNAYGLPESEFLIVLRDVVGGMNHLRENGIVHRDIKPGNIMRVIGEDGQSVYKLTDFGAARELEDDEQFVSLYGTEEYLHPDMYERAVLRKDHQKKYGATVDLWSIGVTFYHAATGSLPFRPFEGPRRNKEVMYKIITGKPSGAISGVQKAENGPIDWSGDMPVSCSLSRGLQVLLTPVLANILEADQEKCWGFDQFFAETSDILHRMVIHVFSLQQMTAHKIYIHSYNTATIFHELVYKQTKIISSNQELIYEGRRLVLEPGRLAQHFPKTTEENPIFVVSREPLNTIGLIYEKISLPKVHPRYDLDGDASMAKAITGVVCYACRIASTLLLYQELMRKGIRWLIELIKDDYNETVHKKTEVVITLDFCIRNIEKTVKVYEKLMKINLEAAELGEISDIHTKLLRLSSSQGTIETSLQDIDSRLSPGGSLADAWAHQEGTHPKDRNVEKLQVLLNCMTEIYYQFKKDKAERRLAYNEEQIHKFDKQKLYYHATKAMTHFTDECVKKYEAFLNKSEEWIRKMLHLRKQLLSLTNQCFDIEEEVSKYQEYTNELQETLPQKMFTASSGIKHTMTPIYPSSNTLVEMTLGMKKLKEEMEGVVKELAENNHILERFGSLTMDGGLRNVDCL
Outline: as §1

PRK2 = biological target: T16, PRK2 (Homo sapiens, UniProt Q16513)
T16 construct: purchased Millipore (KinaseProfiler service)
Outline: as §1

ALK4 = biological target: T17, ALK4 (Homo sapiens, UniProt P36896)
T17 construct: purchased Millipore, Inc. (KinaseProfiler service)
T17 sequence (P36896 24-505): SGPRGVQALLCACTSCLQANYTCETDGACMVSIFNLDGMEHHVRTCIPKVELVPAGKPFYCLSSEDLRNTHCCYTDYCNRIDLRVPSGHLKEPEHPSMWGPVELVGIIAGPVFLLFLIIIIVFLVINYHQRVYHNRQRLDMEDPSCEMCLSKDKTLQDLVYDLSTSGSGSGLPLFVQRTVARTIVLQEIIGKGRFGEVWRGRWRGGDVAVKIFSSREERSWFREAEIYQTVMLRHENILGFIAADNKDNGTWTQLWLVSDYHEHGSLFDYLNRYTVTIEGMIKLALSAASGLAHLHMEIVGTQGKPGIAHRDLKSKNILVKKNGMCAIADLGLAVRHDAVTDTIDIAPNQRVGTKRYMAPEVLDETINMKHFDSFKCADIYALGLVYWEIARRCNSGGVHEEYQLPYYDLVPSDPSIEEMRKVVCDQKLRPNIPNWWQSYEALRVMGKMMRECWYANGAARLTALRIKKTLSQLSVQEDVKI
Outline: as §1

PAK5 = biological target: T18, PAK5 (Homo sapiens, UniProt Q9P286)
T18 construct: purchased Millipore, Inc. (KinaseProfiler service)
Outline: as §1

TEC Activated = biological target: T19, TEC Activated (Homo sapiens, UniProt P42680)
T19 construct: purchased Millipore, Inc. (KinaseProfiler service)
Outline: as §1

Plk3 = biological target: T20, Plk3 (Homo sapiens, UniProt Q9H4B4)
T20 construct: purchased Millipore (KinaseProfiler service)
Outline: as §1

Txk = biological target: T21, Txk (Homo sapiens, UniProt P42681)
T21 construct: purchased Millipore, Inc. (KinaseProfiler service)
Outline: as §1

Fyn = biological target: T22, Fyn (Homo sapiens, UniProt P06241)
T22 construct: purchased Millipore, Inc. (KinaseProfiler service)
Outline: as §1

Ret = biological target: T23, Ret (Homo sapiens, UniProt P07949)
T23 construct: purchased Millipore (KinaseProfiler service)
Outline: as §1

PKCzeta = biological target: T24, PKCzeta (Homo sapiens, UniProt Q05513)
T24 construct: purchased Millipore (KinaseProfiler service)
Outline: as §1

CDK7/cyclinH/MAT1 = biological target: T25, CDK7/cyclinH/MAT1 (Homo sapiens, UniProt P50613)
T25 construct: purchased Millipore, Inc. (KinaseProfiler service)
Outline: as §1

PDK1 = biological target: T26, PDK1 (Homo sapiens, UniProt O15530)
T26 construct: purchased Millipore, Inc. (KinaseProfiler service)
Outline: as §1

ErbB4 = biological target: T27, ErbB4 (Homo sapiens, UniProt Q15303)
T27 construct: purchased Millipore, Inc. (KinaseProfiler service)
Outline: as §1

DAPK2 = biological target: T28, DAPK2 (Homo sapiens, UniProt Q9UIK4)
T28 construct: purchased Millipore, Inc. (KinaseProfiler service)
Outline: as §1

EGFR = biological target: T29, EGFR (Homo sapiens, UniProt P00533)
T29 construct: purchased Millipore, Inc. (KinaseProfiler service)
Outline: as §1

Rsk2 = biological target: T30, Rsk2 (Homo sapiens, UniProt P51812)
T30 construct: purchased Millipore (KinaseProfiler service)
T30 sequence (P51812 whole entry): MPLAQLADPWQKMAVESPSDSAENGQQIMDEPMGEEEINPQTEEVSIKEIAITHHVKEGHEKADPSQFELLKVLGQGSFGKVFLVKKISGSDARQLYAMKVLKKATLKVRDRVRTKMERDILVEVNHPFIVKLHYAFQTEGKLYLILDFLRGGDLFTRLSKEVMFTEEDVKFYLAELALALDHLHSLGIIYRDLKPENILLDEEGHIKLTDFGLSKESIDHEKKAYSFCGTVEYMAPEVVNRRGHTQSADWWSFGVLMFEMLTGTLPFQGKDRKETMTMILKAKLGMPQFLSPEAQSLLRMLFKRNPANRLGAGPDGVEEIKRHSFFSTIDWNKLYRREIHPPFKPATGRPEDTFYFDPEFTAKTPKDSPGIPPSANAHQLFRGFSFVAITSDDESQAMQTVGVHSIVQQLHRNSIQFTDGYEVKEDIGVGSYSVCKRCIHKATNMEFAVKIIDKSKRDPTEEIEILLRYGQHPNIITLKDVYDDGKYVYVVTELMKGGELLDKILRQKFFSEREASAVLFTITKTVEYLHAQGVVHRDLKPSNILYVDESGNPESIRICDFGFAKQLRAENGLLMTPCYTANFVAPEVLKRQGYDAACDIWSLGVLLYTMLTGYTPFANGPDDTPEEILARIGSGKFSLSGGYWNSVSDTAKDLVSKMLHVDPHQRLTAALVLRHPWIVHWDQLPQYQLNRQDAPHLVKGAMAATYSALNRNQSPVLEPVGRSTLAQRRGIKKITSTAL
Outline: as §1

NEK3 = biological target: T31, NEK3 (Homo sapiens, UniProt P51956)
T31 construct: purchased Millipore, Inc. (KinaseProfiler service)
Outline: as §1

MAP4K2 = biological target: T32, MAP4K2 (Homo sapiens, UniProt Q12851)
T32 construct: purchased Millipore, Inc. (KinaseProfiler service)
Outline: as §1

mTOR = biological target: T33, mTOR (Homo sapiens, UniProt P42345)
T33 construct: purchased Millipore, Inc. (KinaseProfiler service)
Outline: as §1

DAPK3 = biological target: T34, DAPK3 (Homo sapiens, UniProt O43293)
T34 construct: purchased Millipore, Inc. (KinaseProfiler service)
Outline: as §1

Ron = biological target: T35, Ron (Homo sapiens, UniProt Q04912)
T35 construct: purchased Millipore (KinaseProfiler service)
Outline: as §1

MAPKAP-K2 = biological target: T36, MAPKAP-K2 (Homo sapiens, UniProt P49137)
T36 construct: purchased Millipore, Inc. (KinaseProfiler service)
Outline: as §1

COCCN1C[C@@H](NC(=O)Nc2c(-c3ccccc3)nc3c(C)nccn23)[C@H](c2ccc(F)c(F)c2)C1 [Example 20, 1-((3S,4R)-4-(3,4-difluorophenyl)-1-(2-methoxyethyl)pyrrolidin-3-yl)-3-(8-methyl-2-phenylimidazo[1,2-a]pyrazin-3-yl)urea]
Avg. POC (MELK): 97.5 POC | Avg. POC (MST1): 89.5 POC | Avg. POC (NEK2): 91 POC | Avg. POC (IGF-1R): 73 POC | Avg. POC (CAMK2b): 102 POC | Avg. POC (ERK2): 96 POC | Avg. POC (ARK5): 104 POC | Avg. POC (MSK2): 126 POC | Avg. POC (MEK1): 111 POC | Avg. POC (TrkA): 0 POC | Avg. POC (Flt1): 100 POC | Avg. POC (Fgr): 121 POC | Avg. POC (TAK1): 97 POC | Avg. POC (AURKA): 118 POC | Avg. POC (TBK1): 114 POC | Avg. POC (PRK2): 104 POC | Avg. POC (ALK4): 98.5 POC | Avg. POC (PAK5): 105.5 POC | Avg. POC (TEC Activated): 107 POC | Avg. POC (Plk3): 99.5 POC | Avg. POC (Txk): 130 POC | Avg. POC (Fyn): 128.5 POC | Avg. POC (Ret): 97.5 POC | Avg. POC (PKCzeta): 104 POC | Avg. POC (CDK7/cyclinH/MAT1): 101.5 POC | Avg. POC (PDK1): 119.5 POC | Avg. POC (ErbB4): 97.5 POC | Avg. POC (DAPK2): 104 POC | Avg. POC (EGFR): 107.5 POC | Avg. POC (Rsk2): 110.5 POC | Avg. POC (NEK3): 103 POC | Avg. POC (MAP4K2): 112 POC | Avg. POC (mTOR): 108 POC | Avg. POC (DAPK3): 103 POC | Avg. POC (Ron): 100 POC | Avg. POC (MAPKAP-K2): 106.5 POC

Source: patent US9790178B2, “Pyrrolidinyl urea, thiourea, guanidine and cyanoguanidine compounds as TrkA kinase inhibitors” (Array BioPharma Inc., priority 2012, dated 2017)
